This note sets out measurements from ChEMBL document CHEMBL2086246, “Synthesis and optimization of substituted furo[2,3-d]-pyrimidin-4-amines and 7H-pyrrolo[2,3-d]pyrimidin-4-amines as ACK1 inhibitors” (Bioorg Med Chem Lett, 2012).

For data set [1], the target named is T1, Activated CDC42 kinase 1 (Homo sapiens, UniProt Q07912). In words: Inhibition of N-terminal His6-tagged ACK1 expressed in baculovirus infected Hi5 cells assessed as inhibition of autophosphorylation after 2 hrs by ELISA. Also noted: species or system BTI-TN-5B1-4. A general note: ELISA stands for enzyme-linked immunosorbent assay.
Target sequence in this assay (Q07912 whole entry): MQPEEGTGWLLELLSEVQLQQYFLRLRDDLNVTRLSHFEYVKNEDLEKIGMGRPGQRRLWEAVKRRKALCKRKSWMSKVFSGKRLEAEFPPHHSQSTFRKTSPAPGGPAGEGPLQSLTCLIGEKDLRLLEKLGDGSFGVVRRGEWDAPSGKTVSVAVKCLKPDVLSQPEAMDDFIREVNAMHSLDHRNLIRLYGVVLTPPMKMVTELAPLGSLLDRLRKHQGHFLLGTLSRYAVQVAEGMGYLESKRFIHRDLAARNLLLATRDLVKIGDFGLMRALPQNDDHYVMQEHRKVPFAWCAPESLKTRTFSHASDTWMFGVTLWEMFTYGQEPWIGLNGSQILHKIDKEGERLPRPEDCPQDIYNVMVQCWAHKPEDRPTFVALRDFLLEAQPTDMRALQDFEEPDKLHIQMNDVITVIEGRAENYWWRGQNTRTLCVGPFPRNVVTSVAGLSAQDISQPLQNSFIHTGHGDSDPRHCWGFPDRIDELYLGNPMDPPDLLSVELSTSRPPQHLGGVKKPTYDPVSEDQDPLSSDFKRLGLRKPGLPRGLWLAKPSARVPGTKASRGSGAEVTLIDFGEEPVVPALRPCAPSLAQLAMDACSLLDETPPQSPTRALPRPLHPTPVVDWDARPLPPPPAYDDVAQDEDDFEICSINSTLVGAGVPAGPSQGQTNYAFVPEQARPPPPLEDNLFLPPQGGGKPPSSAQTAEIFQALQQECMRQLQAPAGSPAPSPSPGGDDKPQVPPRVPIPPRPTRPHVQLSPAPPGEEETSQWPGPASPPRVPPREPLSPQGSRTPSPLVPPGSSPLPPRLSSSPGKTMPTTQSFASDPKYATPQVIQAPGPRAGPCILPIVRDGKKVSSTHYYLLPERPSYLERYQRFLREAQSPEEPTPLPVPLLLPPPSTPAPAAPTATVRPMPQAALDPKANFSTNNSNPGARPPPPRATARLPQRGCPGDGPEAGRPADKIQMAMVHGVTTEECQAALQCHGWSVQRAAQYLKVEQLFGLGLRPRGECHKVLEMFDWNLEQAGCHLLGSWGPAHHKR
In data set [2] the target is T1, Activated CDC42 kinase 1. In words: Inhibition of ACK1.
Target sequence in this assay (Q07912 whole entry): as above
Data set [3] deals with T1, Activated CDC42 kinase 1. In words: Competitive inhibition of ACK1 using ATP.
Target sequence in this assay (Q07912 whole entry, looked up): as the sequence (Q07912 whole entry) above
The target in data set [4] is T1, Activated CDC42 kinase 1. In words: Reversible inhibition of ACK1.
Target sequence in this assay (Q07912 whole entry, looked up): as the sequence (Q07912 whole entry) above
The target of data set [5] is Activated CDC42 kinase 1 (Mus musculus, UniProt O54967). Briefly: Inhibition of ACK1 in mouse C8 cells assessed as decrease in cell viability after 20 to 24 hrs. Type of data set: cell-based.
The nature of data set [6]: Clearance in Sprague-Dawley rat at 1 mg/kg, iv. The conditions noted are these: in vivo. Details: dose 1 mg/kg, route intravenous. In kind it is ADME, organism-based.
The target in data set [7] is Tyrosine-protein kinase Lck (Homo sapiens, UniProt P06239). Briefly: Inhibition of LCK.
The nature of data set [8]: Mean residence time in Sprague-Dawley rat at 1 mg/kg, iv. Type of data set: ADME, organism-based. Also noted: dose 1 mg/kg, route intravenous. The conditions noted are these: in vivo.
The target of another data set is Angiopoietin-1 receptor (Homo sapiens, UniProt Q02763). Briefly: Inhibition of TIE2.
For data set [9], the target named is T2, Tyrosine-protein kinase JAK3 (Homo sapiens, UniProt P52333).
T2 sequence (P52333 whole entry): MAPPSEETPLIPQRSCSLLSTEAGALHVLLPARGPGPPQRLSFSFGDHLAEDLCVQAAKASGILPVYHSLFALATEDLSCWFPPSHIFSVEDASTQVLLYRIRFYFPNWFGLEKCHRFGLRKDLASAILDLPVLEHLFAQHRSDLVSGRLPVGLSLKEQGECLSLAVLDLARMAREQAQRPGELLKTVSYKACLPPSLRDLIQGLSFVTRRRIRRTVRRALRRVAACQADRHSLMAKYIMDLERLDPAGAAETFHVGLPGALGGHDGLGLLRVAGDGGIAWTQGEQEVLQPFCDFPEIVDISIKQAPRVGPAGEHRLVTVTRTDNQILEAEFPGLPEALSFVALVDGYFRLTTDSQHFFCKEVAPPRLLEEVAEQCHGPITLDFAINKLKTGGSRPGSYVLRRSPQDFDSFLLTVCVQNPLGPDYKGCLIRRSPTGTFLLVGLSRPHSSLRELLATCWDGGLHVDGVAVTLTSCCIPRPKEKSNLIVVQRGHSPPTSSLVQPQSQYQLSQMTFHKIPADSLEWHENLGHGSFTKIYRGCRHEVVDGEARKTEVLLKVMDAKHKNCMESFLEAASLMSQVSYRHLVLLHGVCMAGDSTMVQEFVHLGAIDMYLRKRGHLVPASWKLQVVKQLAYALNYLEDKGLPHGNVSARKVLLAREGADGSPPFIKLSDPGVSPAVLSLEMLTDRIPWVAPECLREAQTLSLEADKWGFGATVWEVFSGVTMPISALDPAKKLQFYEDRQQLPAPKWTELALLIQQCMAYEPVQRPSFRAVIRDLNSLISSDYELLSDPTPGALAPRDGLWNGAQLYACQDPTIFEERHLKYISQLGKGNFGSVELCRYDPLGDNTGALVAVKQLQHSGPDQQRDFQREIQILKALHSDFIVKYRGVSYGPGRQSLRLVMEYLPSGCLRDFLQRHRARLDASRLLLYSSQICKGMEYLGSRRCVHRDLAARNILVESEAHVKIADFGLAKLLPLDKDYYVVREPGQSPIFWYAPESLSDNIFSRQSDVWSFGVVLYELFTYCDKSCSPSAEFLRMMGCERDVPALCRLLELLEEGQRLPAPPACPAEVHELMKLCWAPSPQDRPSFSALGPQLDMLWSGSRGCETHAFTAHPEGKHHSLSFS
In words: Inhibition of JAK3.

Data set [10] addresses Vascular endothelial growth factor receptor 2 (Homo sapiens, UniProt P35968). Briefly: Inhibition of KDR.
A short description of data set [11]: Volume of distribution at steady state in Sprague-Dawley rat at 1 mg/kg, iv. Details: dose 1 mg/kg, route intravenous. The note with it: in vivo, read-out: Vdss. Type of data set: ADME, organism-based.
Data set [12] can be described thus: Drug metabolism in rat liver S9 fraction assessed as dimethylamino oxidation. Type of data set: ADME, subcellular.
A short description of data set [13]: Drug metabolism in rat liver S9 fraction assessed as dithiolane ring oxidation. In kind it is ADME, subcellular.

Structures are written as SMILES. The source made the active and inactive calls. The rule behind the calls is not given here.

What is called Ki is the equilibrium dissociation constant of an inhibitor or competing ligand from its target. Usually clearance stands for a measure of how efficiently the substance is removed, as volume per time. Lower therefore signals inefficient removal. Broadly, the MRT is the average time that molecules of a dose stay in the body.

Sequence of Vascular endothelial growth factor receptor 2 (P35968 whole entry): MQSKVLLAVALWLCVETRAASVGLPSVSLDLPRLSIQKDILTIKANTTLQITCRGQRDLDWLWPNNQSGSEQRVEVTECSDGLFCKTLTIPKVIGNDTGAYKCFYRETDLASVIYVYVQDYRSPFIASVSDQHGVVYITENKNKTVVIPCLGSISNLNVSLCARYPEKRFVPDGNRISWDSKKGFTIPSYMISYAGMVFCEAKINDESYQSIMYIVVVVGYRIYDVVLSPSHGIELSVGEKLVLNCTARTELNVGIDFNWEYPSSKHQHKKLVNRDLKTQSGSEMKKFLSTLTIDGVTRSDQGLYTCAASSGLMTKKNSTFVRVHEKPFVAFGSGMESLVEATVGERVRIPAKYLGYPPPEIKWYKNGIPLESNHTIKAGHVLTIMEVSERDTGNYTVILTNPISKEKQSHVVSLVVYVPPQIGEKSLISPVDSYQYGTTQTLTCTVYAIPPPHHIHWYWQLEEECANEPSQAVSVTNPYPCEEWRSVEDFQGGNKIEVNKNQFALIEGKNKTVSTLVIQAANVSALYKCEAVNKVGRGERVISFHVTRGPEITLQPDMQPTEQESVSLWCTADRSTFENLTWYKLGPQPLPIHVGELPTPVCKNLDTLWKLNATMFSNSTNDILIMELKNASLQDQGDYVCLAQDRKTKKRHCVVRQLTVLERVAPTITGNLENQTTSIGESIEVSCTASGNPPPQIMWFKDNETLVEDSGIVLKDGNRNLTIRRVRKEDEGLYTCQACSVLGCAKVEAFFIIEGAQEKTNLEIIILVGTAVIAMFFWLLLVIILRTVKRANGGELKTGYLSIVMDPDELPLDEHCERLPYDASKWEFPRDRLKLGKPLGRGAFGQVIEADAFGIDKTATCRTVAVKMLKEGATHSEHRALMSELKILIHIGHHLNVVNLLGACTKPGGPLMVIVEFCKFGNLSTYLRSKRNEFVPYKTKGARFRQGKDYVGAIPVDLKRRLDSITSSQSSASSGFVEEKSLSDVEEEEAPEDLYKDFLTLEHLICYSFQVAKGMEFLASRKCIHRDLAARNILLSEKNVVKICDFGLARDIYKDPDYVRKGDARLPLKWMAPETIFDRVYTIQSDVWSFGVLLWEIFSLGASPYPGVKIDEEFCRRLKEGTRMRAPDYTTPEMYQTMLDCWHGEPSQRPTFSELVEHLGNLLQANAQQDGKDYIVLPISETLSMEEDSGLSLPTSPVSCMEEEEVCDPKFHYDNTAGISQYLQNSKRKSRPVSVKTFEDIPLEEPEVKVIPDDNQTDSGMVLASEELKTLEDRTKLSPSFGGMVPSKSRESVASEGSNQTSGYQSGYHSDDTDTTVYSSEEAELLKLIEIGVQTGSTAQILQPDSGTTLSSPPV
Sequence of Activated CDC42 kinase 1 (Mus musculus, UniProt O54967) (O54967 whole entry): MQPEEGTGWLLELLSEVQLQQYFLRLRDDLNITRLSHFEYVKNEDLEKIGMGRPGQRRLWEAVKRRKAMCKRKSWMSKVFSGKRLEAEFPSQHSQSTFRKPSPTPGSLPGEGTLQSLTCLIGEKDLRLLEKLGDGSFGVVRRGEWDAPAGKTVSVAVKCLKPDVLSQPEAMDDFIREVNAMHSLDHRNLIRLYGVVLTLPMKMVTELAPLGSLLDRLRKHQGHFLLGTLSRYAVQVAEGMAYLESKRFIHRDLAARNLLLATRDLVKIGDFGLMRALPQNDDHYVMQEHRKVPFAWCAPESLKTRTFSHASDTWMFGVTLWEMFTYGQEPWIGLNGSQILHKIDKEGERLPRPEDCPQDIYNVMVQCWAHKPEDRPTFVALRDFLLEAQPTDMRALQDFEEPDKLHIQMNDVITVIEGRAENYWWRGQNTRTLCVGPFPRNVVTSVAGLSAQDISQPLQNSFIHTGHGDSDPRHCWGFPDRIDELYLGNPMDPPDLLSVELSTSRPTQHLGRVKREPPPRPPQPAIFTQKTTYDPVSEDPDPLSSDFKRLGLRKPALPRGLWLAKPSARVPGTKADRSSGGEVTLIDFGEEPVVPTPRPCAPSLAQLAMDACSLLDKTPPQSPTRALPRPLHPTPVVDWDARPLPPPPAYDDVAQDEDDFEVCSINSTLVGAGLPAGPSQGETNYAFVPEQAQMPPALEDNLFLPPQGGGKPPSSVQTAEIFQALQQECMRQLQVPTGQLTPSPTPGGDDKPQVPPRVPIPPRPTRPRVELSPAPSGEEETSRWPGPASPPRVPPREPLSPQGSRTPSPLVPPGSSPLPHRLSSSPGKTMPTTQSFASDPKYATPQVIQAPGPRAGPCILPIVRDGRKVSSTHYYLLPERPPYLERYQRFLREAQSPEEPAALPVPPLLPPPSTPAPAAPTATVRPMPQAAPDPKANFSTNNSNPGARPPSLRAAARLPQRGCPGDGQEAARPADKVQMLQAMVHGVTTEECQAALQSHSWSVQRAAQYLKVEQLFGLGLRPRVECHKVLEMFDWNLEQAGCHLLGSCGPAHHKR
Sequence of Angiopoietin-1 receptor (Q02763 whole entry): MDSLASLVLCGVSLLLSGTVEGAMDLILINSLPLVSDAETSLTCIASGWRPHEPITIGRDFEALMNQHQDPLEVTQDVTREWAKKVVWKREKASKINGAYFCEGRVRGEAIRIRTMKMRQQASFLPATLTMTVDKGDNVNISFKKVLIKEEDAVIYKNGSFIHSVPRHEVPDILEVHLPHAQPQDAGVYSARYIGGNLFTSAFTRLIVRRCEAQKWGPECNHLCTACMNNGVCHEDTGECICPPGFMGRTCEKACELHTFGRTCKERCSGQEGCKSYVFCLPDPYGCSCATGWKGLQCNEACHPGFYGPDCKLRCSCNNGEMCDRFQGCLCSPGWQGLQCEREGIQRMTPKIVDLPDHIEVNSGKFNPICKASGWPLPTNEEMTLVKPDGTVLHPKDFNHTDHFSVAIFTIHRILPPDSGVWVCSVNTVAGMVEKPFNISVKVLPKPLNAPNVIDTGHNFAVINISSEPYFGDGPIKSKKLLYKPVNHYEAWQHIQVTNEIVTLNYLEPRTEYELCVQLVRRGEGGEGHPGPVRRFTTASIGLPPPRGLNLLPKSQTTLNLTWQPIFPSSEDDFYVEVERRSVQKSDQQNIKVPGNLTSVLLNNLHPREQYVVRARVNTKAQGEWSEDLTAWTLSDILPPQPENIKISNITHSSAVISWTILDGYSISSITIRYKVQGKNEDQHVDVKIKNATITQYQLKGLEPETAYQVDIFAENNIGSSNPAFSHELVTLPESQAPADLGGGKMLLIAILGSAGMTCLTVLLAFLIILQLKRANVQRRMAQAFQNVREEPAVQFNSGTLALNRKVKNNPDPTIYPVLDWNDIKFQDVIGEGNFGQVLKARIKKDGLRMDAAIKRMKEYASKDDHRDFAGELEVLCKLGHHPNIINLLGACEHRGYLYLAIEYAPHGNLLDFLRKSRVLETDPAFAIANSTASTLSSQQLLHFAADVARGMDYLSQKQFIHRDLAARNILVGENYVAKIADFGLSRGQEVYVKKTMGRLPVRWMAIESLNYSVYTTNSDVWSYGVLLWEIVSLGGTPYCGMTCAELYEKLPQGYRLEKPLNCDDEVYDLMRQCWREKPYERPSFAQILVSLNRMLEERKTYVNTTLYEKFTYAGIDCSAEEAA

On to `COc1ccc(-c2oc3ncnc(NC[C@@H]4CCCO4)c3c2-c2ccccc2)cc1`, for which the Ki on Activated CDC42 kinase 1 [1] was 5 nM.
Turning to `CN(C)S(=O)(=O)c1ccc(-c2[nH]c3ncnc(NC[C@@H]4CCCO4)c3c2-c2ccccc2)cc1`, the Ki at Activated CDC42 kinase 1 [1] amounted to 2 nM.
`COc1cccc(-c2c(-c3ccc(OCCN4CCCC4)cc3)[nH]c3ncnc(NC[C@@H]4CCCO4)c23)c1`: at Activated CDC42 kinase 1 [1], the Ki came out at 10 nM.
For `Nc1ncnc2oc(-c3ccccc3)c(-c3ccccc3)c12`, the Ki at Activated CDC42 kinase 1 [2] amounted to 1000 nM. Besides, the inhibition result on Activated CDC42 kinase 1 [3] and at Activated CDC42 kinase 1 [4] was “Active” in each case.
For `CN(C)C(=O)c1ccc(-c2oc3ncnc(NC[C@@H]4CCCO4)c3c2-c2ccccc2)cc1`, the Ki on Activated CDC42 kinase 1 [1] worked out at 10 nM.
With `c1ccc(-c2c(-c3ccc(OCCN4CCOCC4)cc3)[nH]c3ncnc(NC[C@@H]4CCCO4)c23)cc1`, on Activated CDC42 kinase 1 [1], the Ki stood at 6 nM.
In the case of `CO[C@@H]1CCC[C@H]1CNc1ncnc2[nH]c(-c3ccc(OCCN(C)C)cc3)c(-c3ccccc3)c12`, at Activated CDC42 kinase 1 [1], the Ki was 50 nM.
For `O=C(c1ccc(-c2[nH]c3ncnc(NC[C@@H]4CCCO4)c3c2-c2ccccc2)cc1)N1CCOCC1`, at Activated CDC42 kinase 1 [1], the Ki was determined as 6 nM.
`CNC(=O)c1ccc(-c2[nH]c3ncnc(NC[C@@H]4CCCO4)c3c2-c2ccccc2)cc1`: the Ki on Activated CDC42 kinase 1 [1] turned out to be 3 nM.
`CN(C)CCOc1ccc(-c2oc3ncnc(NC[C@@H]4CCCO4)c3c2-c2ccccc2)cc1`: the Ki at Activated CDC42 kinase 1 [1] was 5 nM.
For `c1cncc(-c2c(-c3ccc(OCCN4CCCC4)cc3)[nH]c3ncnc(NC[C@@H]4CCCO4)c23)c1`, the Ki at Activated CDC42 kinase 1 [1] was 40 nM.
`CN(C)C(=O)c1ccc(-c2[nH]c3ncnc(NC[C@@H]4CCCO4)c3c2-c2ccccc2)cc1`: the Ki at Activated CDC42 kinase 1 [1] was determined as 2 nM.
Consider `c1ccc(-c2c(-c3ccc(OCCN4CCCC4)cc3)[nH]c3ncnc(NC[C@@H]4CCCO4)c23)cc1`, for which the Ki at Activated CDC42 kinase 1 [1] stood at 6 nM.
As for `CN(C)CCOc1ccc(-c2[nH]c3ncnc(NC[C@@H]4CC[C@H]4O)c3c2-c2ccccc2)cc1` (racemic), the Ki on Activated CDC42 kinase 1 [1] is 30 nM.
On the same count and under the same terms, the same measure for `CO[C@@H]1CC[C@H]1CNc1ncnc2[nH]c(-c3ccc(OCCN(C)C)cc3)c(-c3ccccc3)c12` (racemic): 20 nM; for `CS(=O)(=O)c1ccc(-c2oc3ncnc(NC[C@@H]4CCCO4)c3c2-c2ccccc2)cc1`: 8 nM; for `CN(C)CCOc1ccc(-c2oc3ncnc(NCC4CCCS4)c3c2-c2ccccc2)cc1` (racemic): 8 nM.
In the case of `O=C1CCCN1CCOc1ccc(-c2[nH]c3ncnc(NC[C@@H]4CCCO4)c3c2-c2ccccc2)cc1`, the Ki at Activated CDC42 kinase 1 [1] came to 4 nM.
With `CN(C)CCOc1ccc(-c2oc3ncnc(NCC4SCCS4)c3c2-c2ccccc2)cc1`, the inhibitory constant (Ki) at Activated CDC42 kinase 1 [1] is 0.2 nM.
Consider `CNC(=O)c1ccc(-c2oc3ncnc(NC[C@@H]4CCCO4)c3c2-c2ccccc2)cc1`, for which the inhibition constant Ki on Activated CDC42 kinase 1 [1] was determined as 13 nM.
As for `CO[C@@H]1CCC[C@@H]1CNc1ncnc2[nH]c(-c3ccc(OCCN(C)C)cc3)c(-c3ccccc3)c12`, at Activated CDC42 kinase 1 [1], the Ki stood at 50 nM.
With `CN(C)CCOc1ccc(-c2[nH]c3ncnc(NC[C@@H]4CCCO4)c3c2-c2ccccc2)cc1`, the Ki on Activated CDC42 kinase 1 [1] turned out to be 6 nM.
Regarding `CN(C)CCOc1ccc(-c2[nH]c3ncnc(NC[C@@H]4CCCO4)c3c2C2=CCCCC2)cc1`, on Activated CDC42 kinase 1 [1], the Ki stood at 10 nM.
In the case of `O=C1CCCN1CCOc1ccc(-c2oc3ncnc(NC[C@@H]4CCCO4)c3c2-c2ccccc2)cc1`, at Activated CDC42 kinase 1 [1], the Ki turned out to be 4 nM.
Take `c1ccc(-c2nc3ncnc(NC[C@@H]4CCCO4)c3n2-c2ccccc2)cc1`: at Activated CDC42 kinase 1 [1], the Ki came out at 7300 nM.
In the case of `c1ccc(-c2[nH]c3ncnc(NC[C@@H]4CCCO4)c3c2-c2ccccc2)cc1`, at Activated CDC42 kinase 1 [1], the Ki worked out at 6 nM.
Regarding `c1ccc(-c2sc3ncnc(NC[C@@H]4CCCO4)c3c2-c2ccccc2)cc1`, on Activated CDC42 kinase 1 [1], the Ki is more than 10000 nM.
As for `CN(C)CCOc1ccc(-c2[nH]c3ncnc(NC[C@@H]4CCCO4)c3c2C2=CCCC2)cc1`, at Activated CDC42 kinase 1 [1], the Ki came to 20 nM.
For the molecule `c1ccc(-c2oc3nccc(NC[C@@H]4CCCO4)c3c2-c2ccccc2)cc1`, the inhibition constant Ki at Activated CDC42 kinase 1 [1] stood at 70 nM.
As to `CN(C)CCOc1ccc(-c2[nH]c3ncnc(NC[C@@H]4CCCO4)c3c2C2CC2)cc1`, the IC50 result on Activated CDC42 kinase 1 [5] is “Not Active”. Further, the inhibition constant Ki at Activated CDC42 kinase 1 [1] stood at 1980 nM.
For the molecule `c1ccc(-c2c(-c3ccc(OCCN4CCOCC4)cc3)oc3ncnc(NC[C@@H]4CCCO4)c23)cc1`, the Ki on Activated CDC42 kinase 1 [1] is 4 nM.
In the case of `CN(C)CCOc1ccc(-c2oc3ncnc(NC[C@@H]4CCCCS4)c3c2-c2ccccc2)cc1`, on Activated CDC42 kinase 1 [1], the Ki turned out to be 69 nM.
In the case of `CN(C)CCOc1ccc(-c2oc3ncnc(NCC4OCCO4)c3c2-c2ccccc2)cc1`, the Ki on Activated CDC42 kinase 1 [1] is 13 nM.
The same measure, in the same setting: the value for `CS(=O)(=O)c1ccc(-c2[nH]c3ncnc(NC[C@@H]4CCCO4)c3c2-c2ccccc2)cc1` was 7 nM.
For the molecule `c1ccc(-c2nc3ncnc(NC[C@@H]4CCCO4)n3c2-c2ccccc2)cc1`, the Ki on Activated CDC42 kinase 1 [1] was determined as 1800 nM.
As to `COc1ccc(-c2[nH]c3ncnc(NC[C@@H]4CCCO4)c3c2-c2ccccc2)cc1`, the Ki at Activated CDC42 kinase 1 [1] was found to be 6 nM.
On to `Fc1ccccc1-c1c(-c2ccc(OCCN3CCCC3)cc2)[nH]c2ncnc(NC[C@@H]3CCCO3)c12`, for which, on Activated CDC42 kinase 1 [1], the inhibition constant Ki was determined as 4 nM.
Molecule `c1ccc(-c2c(-c3ccc(OCCN4CCCC4)cc3)[nH]c3ncnc(NCC4SCCS4)c23)cc1` gave a clearance in data set [6] of 113 mL/min/kg. The Ki in [7] stood at 138 nM; at Angiopoietin-1 receptor it was 200 nM; in data set [9], 6.5 nM; in data set [10], 380 nM; on Activated CDC42 kinase 1 [1], 0.3 nM. In data set [8], this molecule had an MRT of 2.3 h. The Vd in data set [11] is 15.6 L/kg.
Turning to `CNS(=O)(=O)c1ccc(-c2[nH]c3ncnc(NC[C@@H]4CCCO4)c3c2-c2ccccc2)cc1`, the Ki at Activated CDC42 kinase 1 [1] was 2 nM.
Molecule `CN(C)CCOc1ccc(-c2[nH]c3ncnc(NCC4SCCS4)c3c2-c2ccccc2)cc1` showed a clearance in data set [6] of 125 mL/min/kg. In addition, the MRT in [8] was 3.6 h. Also, the Drug metabolism entry in [12] and in data set [13] was “Active” in each case. Further, the Vd in data set [11] worked out at 26.6 L/kg.
With `O=C(c1ccc(-c2oc3ncnc(NC[C@@H]4CCCO4)c3c2-c2ccccc2)cc1)N1CCOCC1`, the Ki on Activated CDC42 kinase 1 [1] is 6 nM.
Take `Cc1ccccc1-c1c(-c2ccc(OCCN3CCCC3)cc2)[nH]c2ncnc(NC[C@@H]3CCCO3)c12`: the Ki on Activated CDC42 kinase 1 [1] is 20 nM.
For `CNS(=O)(=O)c1ccc(-c2oc3ncnc(NC[C@@H]4CCCO4)c3c2-c2ccccc2)cc1`, the Ki on Activated CDC42 kinase 1 [1] is 4 nM.
Same read-out and setting: the value for `CN(C)CCOc1ccc(-c2oc3ncnc(NCC4SCCCS4)c3c2-c2ccccc2)cc1` was 4 nM.
